“Also recorded” adds a separate entry of the source.

In data set [1] the test system is corneal endothelial cells with Fuchs' endothelial corneal dystrophy (iFECD). The data set can be described thus: Annexin V positive apoptosis cells by flow cytometry, iFECD. Format: cell-based, human. To be noted: for TGFβ2-induced increase of annexin V positive apoptotic cells, effect of inhibitor: TGFβ2 plus inhibitor, 24 hours. On the procedure: The human corneal endothelial cells (iHCEC) or corneal endothelial cells with Fuchs' endothelial corneal dystrophy (iFECD) prepared in the Preparation Examples were seeded on a culture dish coated with FNC Coating Mix and culture for about 3 days until reaching sub-confluence under the condition of 5% CO2 at 37° C. Furthermore, TGFβ2 and SB431542 were added and the cells were incubated for 24 hours under the condition of 5% CO2 at 37° C. Cells were peeled off with ACCUMAX. Annexin V or PI positive cells were measured by using Annexin V and PI and a flow cytometer (FACS Aria II (BD Biosciences, Franklin Lakes, N.J.)) with MEBCYTO Apoptosis Kit (Annexin V-FITC Kit) 100 test (4700, MEDICAL & BIOLOGICAL LABORATORIES).
The human corneal endothelial cells (iHCEC) or corneal endothelial cells with Fuchs' endothelial corneal dystrophy (iFECD) prepared in the Preparation Examples were seeded on a culture dish coated with FNC Coating Mix and culture for about 3 days until reaching sub-confluence under the condition of 5% CO2 at 37° C. Furthermore, TGFβ2, SB431542 and TGFβ signal inhibitor A-83-01 (Wako, Osaka; catalog No: 018-22521), ALK5 inhibitor (Wako catalog No: 012-23021; CAS No. 446859-33-2; 2-(3-(6-methylpyridine-2-yl)-1H-pyrazole-4-yl)-1,5-naphthyridine) were added and the cells were incubated for 24 hours under the condition of 5% CO2 at 37° C. The cells were peeled off with ACCUMAX. Annexin V or PI positive cells were measured by using annexin V and propidium iodide (PI) with a flow cytometer (FACS Aria II (BD Biosciences, Franklin Lakes, N.J.)).
(Flow cytometry measures light scatter and fluorescence of single cells or particles in a stream.)

For data set [2] the test system is unchanged. It is filed as cell-based, human. On the procedure:
The human corneal endothelial cells (iHCEC) or corneal endothelial cells with Fuchs' endothelial corneal dystrophy (iFECD) prepared in the Preparation Examples were seeded on a culture dish coated with FNC Coating Mix and cultured for about 3 days until reaching sub-confluence under the condition of 5% CO2 at 37° C. Furthermore, TGFβ2, SB431542 and TG were added and the cells were incubated for 24 hours under the condition of 5% CO2 at 37° C. Cell morphology and apoptosis were then observed under a phase difference microscope.

The next data set relates to iHCEC. In words: Western blot of apoptosis associated proteins after staurosporine stimulation. Format: cell-based, human. Particulars: 15 minutes to 4 hours after staurosporine stimulation. On the procedure:
Caspase 9, caspase 3 and poly(ADP-ribose) polymerase (PARP) were assessed by Western blot in iHCEC stimulated with a mitochondrial stress stimulant staurosporine (abcam, ab120056) in order to assess the involvement of mitochondrial failure in apoptosis.
A stimulation was applied with staurosporine to induce a mitochondrial disorder to examine the chronological change.
Western blot was performed in accordance with the descriptions in Example 2. The following antibodies were used in addition to those used in Example 2.

Data set [3] deals with human corneal endothelial cells (iHCEC). The data set can be described thus: Annexin V positive apoptosis cells by flow cytometry, iHCEC. It is filed as cell-based. To be noted: after TGFβ stimulation (11.1±0.6% before stimulation). The procedure: Further, it is known as the knowledge of the inventors that PERK phosphorylation and ATF6 cleavage were increased more in iFECD than in iHCEC by TGFβ. In order to investigate the involvement of TGFβ signaling in apoptosis, cells were treated with TGFβ and annexin V positive apoptosis cells were assessed by flow cytometry. […] Meanwhile, it is known that TGFβ increases annexin V positive cells after a stimulation in iFECD relative to the number prior to a TGFβ stimulation (as exemplary data, 19.4±1.4% prior to stimulation and 29.9±1.5% after stimulation, p<0.01). In addition thereto, it is shown that expression of the chaperone GRP78 is elevated. Further, it is shown that the expression of CHOP is elevated and apoptosis is induced by ER stress. […]
The human corneal endothelial cells (iHCEC) or corneal endothelial cells with Fuchs' endothelial corneal dystrophy (iFECD) prepared in the Preparation Examples were seeded on a culture dish coated with FNC Coating Mix and culture for about 3 days until reaching sub-confluence under the condition of 5% CO2 at 37° C. […] Annexin V or PI positive cells were measured by using Annexin V and PI and a flow cytometer (FACS Aria II (BD Biosciences, Franklin Lakes, N.J.)) with MEBCYTO Apoptosis Kit (Annexin V-FITC Kit) 100 test (4700, MEDICAL & BIOLOGICAL LABORATORIES).

The test system of the next data set is iHCEC and iFECD. In words: Western blot of ER stress markers after TGFβ2 stimulation. It is filed as cell-based, human. On the procedure: Western blot: Electrophoresis was applied to a protein extracted and obtained in a RIPA buffer with 7.5% polyacrylamide. The isolated protein was transferred onto a PVDF membrane (PALL LIFE SCIENCE (catalog number: EH-2222)). A Tris buffered saline (10 mM Tris-HCl, pH 7.4; 100 mM NaCl) (TBS-T) comprising 0.1% (vol/vol) polyethylene sorbitan monolaurate (Nacalai Tesque, catalog number: 28353-85) complemented with 5% NON FAT DRY MILK (CELL SIGNALING, catalog number: 9999) and a blotted membrane were incubated for 1 hour for a blocking operation. The membrane was immersed in anti-GRP78 antibodies diluted 1000 fold with TBS-T complemented with 5% NON FAT DRY MILK and reacted for 1 hour at room temperature. After washing three times with TBS-T and incubating with a mouse-IgG antibody HRP complex (CELL SIGNALING (catalog number: 7074P2)) and washing, a band illuminated with an ECL-ADVAVCE Western Blotting Detection Kit (GE Healthcare Japan (catalog number: RPN2135V)) was detected.
Cells were stimulated for 24 hours with 10 ng/ml TGFβ2 (R&D SYSTEMS). Further, cells stimulated for 24 hours with 10 μM of thapsigargin (TG; Alomone Laboratories Ltd., Jerusalem, Israel) were used as a positive control of ER stress.
Cells were stimulated with 10 ng/ml TGFβ2 (R&D SYSTEMS). Further, cells stimulated with thapsigargin (TG; Alomone Laboratories Ltd., Jerusalem, Israel) were used as a positive control of ER stress.
In the present Example, a Western blot was performed as in Example 2 to investigate the expression of the molecular chaperone GRP78 and CHOP involved with apoptosis due to an ER stress response in order to confirm that a stronger ER stress is elicited by TGF-β in Fuchs' endothelial corneal dystrophy. Further, expression of phosphorylated PERK and ATF6 involved in stress signaling on an endoplasmic reticulum membrane was also examined therewith. A stimulation was applied with 10 ng/ml of TGFβ2 (R&D SYSTEMS). The chronological change was also examined therewith.
On the technique in general: A western blot detects proteins with antibodies after separation by electrophoresis.

In data set [4] the test system is corneal endothelial cells with Fuchs' endothelial corneal dystrophy (iFECD). The data set can be described thus: Aggresome measurement by flow cytometry (ProteoStat Aggresome Detection Kit). Format: cell-based, human. Particulars: TGFβ2 10 ng/ml, 24 hours. The procedure: 1×10^5 human corneal endothelial cells (iHCEC) or corneal endothelial cells with Fuchs' endothelial corneal dystrophy (iFECD) were seeded onto a 6 well plate coated with an FNC Coating Mix and cultured for about 2 days until reaching sub-confluence under the condition of 5% CO2 at 37° C. Furthermore, TGFβ2 (10 ng/ml; R&D SYSTEMS) was added and the cells were incubated for 24 hours under the condition of 5% CO2 at 37° C. The cells were then peeled off with ACCUMAX™ (Funakoshi), and aggresomes were measured with a flow cytometer (FACS Aria II (BD Biosciences, Franklin Lakes, N.J.) by using a ProteoStat® Aggresome Detection Kit: (EZN-51035-K100, Enabling Discovery in Life Science®).

[5] abbreviates: 10 ng/ml TGFβ2, 3 and 6 hours, more significant in iFECD than iHCEC.

Turning to `Cc1cccc(-c2nn(C(=S)Nc3ccccc3)cc2-c2ccnc3ccccc23)n1` [A-83-01, 3-(6-methyl-2-pyridinyl)-N-phenyl-4-(4-quinolinyl)-1H-pyrazole-1-carbothioamide], the “TGFβ2-induced increase of annexin V positive apoptotic cells, effect of inhibitor” value (shortened to “TGFβ2-induced increase … of inhibitor”) in data set [1] was “suppress apoptotic cells”.

As to `C/C=C(/C)C(=O)O[C@H]1C(C)=C2[C@H]([C@@H]1OC(=O)CCCCCCC)[C@@](C)(OC(C)=O)C[C@H](OC(=O)CCC)[C@@]1(O)[C@H]2OC(=O)[C@@]1(C)O` [TG, thapsigargin], the “cell damage / floating cells caused by the stimulant” value in data set [2] was “large amount of floating cells”.

For the compound `CN[C@@H]1C[C@H]2O[C@@](C)([C@@H]1OC)n1c3ccccc3c3c4c(c5c6ccccc6n2c5c31)C(=O)NC4` [staurosporine], in the data set on iHCEC, the “activation of caspase 9, caspase 3 and PARP” value is “activate”.

As to “TGFβ2: transforming growth factor-β2 (R&D SYSTEMS) used to stimulate cells at 10 ng/ml”, the “cell damage / floating cells caused by the stimulant” value in data set [2] is listed as “damaged”. The “percentage of annexin V positive apoptosis cells after stimulation” value in data set [1] (after TGFβ stimulation (19.4±1.4% prior to stimulation), p<0.01) worked out at 29.9±1.5%. Further, in data set [3], the “percentage of annexin V positive apoptosis cells after stimulation” value amounted to 12.3±0.5%. For the same compound, in the data set on iHCEC and iFECD (10 ng/ml TGFβ2, 3 and 6 hours), the “expression of CHOP” value is listed as “increases” and the “expression of the chaperone GRP78” value is reported as “increases”. In the data set with iHCEC and iFECD (setting [5]), the “expression of ATF6” value was “promotes expression” and the “phosphorylation of PERK (ER stress sensor)” value is listed as “promotes phosphorylation”. Besides, the “expression of chaperone GRP78 and stress sensor IRE1” value in the data set on iHCEC and iFECD (10 ng/ml TGFβ2, iFECD and normal cells, level high especially in iFECD) is “induced”. The “increase of aggresomes (fluorescence intensity)” value in data set [4] was 1.11 fold.

With `NC(=O)c1ccc(-c2nc(-c3ccc4c(c3)OCO4)c(-c3ccccn3)[nH]2)cc1` [SB431542, 4-[4-(1,3-benzodioxole-5-yl)-5-(2-pyridinyl)-1H-imidazole-2-yl]benzamide], in data set [2] (iFECD, TG stimulation, 24 hours), the “floating cells induced by TG (thapsigargin), effect of inhibitor” value is listed as “not cancelled”. In addition, the “floating cells (cell damage) induced by TGFβ2, effect of inhibitor” value in data set [2] (iFECD, TGFβ2 stimulation, 24 hours) was “cancelled”. Moreover, the “TGFβ2-induced increase … of inhibitor” value in data set [1] is listed as “cancelled; also recorded: suppresses apoptosis”.

For the compound `Cc1cccc(-c2n[nH]cc2-c2ccc3ncccc3n2)n1` [ALK5 inhibitor, 2-(3-(6-methylpyridine-2-yl)-1H-pyrazole-4-yl)-1,5-naphthyridine], the “TGFβ2-induced increase … of inhibitor” value in data set [1] is “suppress apoptotic cells”.

These data come from US11382904B2, “Therapeutic drug for diseases related to endoplasmic reticulum cell death in corneal endothelium” (KYOTO PREFECTURAL PUBLIC UNIVERSITY CORPORATION, priority 2013, dated 2022).
